Molecular target: POLRMT (Homo sapiens (Human), UniProt O00411)
Experiment: homogeneous TR-FRET assay of mitochondrial transcription (inhibition of POLRMT)
Assay type: biochemical
Settings: 7.5 nM POLRMT, 15 nM TFB2M, 30 nM TFAM, 0.5 nM DNA template, 500 μM NTPs, 37° C., 60 minutes
Procedure, shortened: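 Human POLRMT (7.5 nM) with TFB2M (15 nM), TFAM (30 nM), 0.5 nM linearized LSP plasmid template and 500 μM NTPs in pH 7.5 Tris/MgCl2 buffer, 60 min at 37 °C. Stopped with EDTA/high-salt; 407 bp transcript detected by hybridized Europium/ATTO647N probes. 665/620 nm ratio gives activity.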

Chain of POLRMT (O00411 42-1230): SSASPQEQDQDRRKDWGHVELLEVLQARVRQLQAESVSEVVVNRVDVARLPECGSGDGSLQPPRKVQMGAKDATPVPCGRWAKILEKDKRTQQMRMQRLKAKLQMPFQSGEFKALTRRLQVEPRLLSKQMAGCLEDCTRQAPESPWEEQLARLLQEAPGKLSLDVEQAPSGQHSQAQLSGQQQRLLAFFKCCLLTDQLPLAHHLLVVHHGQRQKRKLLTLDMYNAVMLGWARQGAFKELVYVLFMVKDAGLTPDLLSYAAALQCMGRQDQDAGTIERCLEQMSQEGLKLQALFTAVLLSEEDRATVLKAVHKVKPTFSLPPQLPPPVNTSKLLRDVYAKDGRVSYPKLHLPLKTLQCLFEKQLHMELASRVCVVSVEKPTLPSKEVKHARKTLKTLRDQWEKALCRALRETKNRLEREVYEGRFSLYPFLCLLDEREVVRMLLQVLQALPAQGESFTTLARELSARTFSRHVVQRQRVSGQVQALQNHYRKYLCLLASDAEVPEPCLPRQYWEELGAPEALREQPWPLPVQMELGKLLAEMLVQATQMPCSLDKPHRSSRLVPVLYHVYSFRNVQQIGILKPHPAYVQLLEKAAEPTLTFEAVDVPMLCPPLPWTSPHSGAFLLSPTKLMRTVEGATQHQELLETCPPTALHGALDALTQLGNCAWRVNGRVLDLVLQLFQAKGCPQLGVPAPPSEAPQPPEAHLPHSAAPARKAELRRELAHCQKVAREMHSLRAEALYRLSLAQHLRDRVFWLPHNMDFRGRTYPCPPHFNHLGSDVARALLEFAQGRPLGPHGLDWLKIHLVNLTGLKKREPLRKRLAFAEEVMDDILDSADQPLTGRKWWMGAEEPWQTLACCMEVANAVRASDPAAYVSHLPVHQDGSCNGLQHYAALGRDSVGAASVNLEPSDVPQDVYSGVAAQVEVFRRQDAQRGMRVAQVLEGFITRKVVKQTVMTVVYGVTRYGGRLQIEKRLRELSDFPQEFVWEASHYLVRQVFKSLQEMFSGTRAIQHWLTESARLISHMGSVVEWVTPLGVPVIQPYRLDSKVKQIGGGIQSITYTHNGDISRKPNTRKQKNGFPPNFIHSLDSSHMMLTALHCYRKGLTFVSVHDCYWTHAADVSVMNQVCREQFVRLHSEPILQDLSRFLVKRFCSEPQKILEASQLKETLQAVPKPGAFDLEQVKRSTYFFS

Compound | IC50
CNC(=O)[C@H](COC)Oc1ccc2c(-c3ccccc3C)cc(=O)oc2c1 [Example 69, (S)-3-methoxy-N-methyl-2-((2-oxo-4-(o-tolyl)-2H-chromen-7-yl)oxy)propenamide] | 17000 nM
CNC(=O)[C@@H](COC)Oc1ccc2c(-c3ccccc3C)cc(=O)oc2c1 [Example 70, (R)-3-methoxy-N-methyl-2-((2-oxo-4-(o-tolyl)-2H-chromen-7-yl)oxy)propenamide] | 900 nM
COC[C@@H](Oc1ccc2c(-c3ccccc3C)cc(=O)oc2c1)C(=O)N(C)C [Example 71, (R)-3-methoxy-N,N-dimethyl-2-((2-oxo-4-(o-tolyl)-2H-chromen-7-yl)oxy)propenamide] | 100 nM
COC[C@H](Oc1ccc2c(-c3ccccc3C)cc(=O)oc2c1)C(=O)N(C)C [Example 72, (S)-3-methoxy-N,N-dimethyl-2-((2-oxo-4-(o-tolyl)-2H-chromen-7-yl)oxy)propenamide] | 10000 nM
COCC(Oc1ccc2c(-c3ccc(F)cc3Cl)cc(=O)oc2c1)C(=O)O (stereo not drawn) [Example 73, 2-((4-(2-chloro-4-fluorophenyl)-2-oxo-2H-chromen-7-yl)oxy)-3-methoxypropanoic acid] | 3000 nM
COCC(Oc1ccc2c(-c3ccccc3Cl)cc(=O)oc2c1)C(=O)O (stereo not drawn) [Example 84, 2-((4-(2-chlorophenyl)-2-oxo-2H-chromen-7-yl)oxy)-3-methoxypropanoic acid] | 2000 nM
CCOCC(Oc1ccc2c(-c3ccccc3C)cc(=O)oc2c1)C(N)=O (stereo not drawn) [Example 99] | 4000 nM
CCOCC(Oc1ccc2c(-c3ccccc3C)cc(=O)oc2c1)C(N)=O (stereo not drawn) [Example 100] | 900 nM
COC[C@@H](Oc1ccc2c(-c3ccccc3C)cc(=O)oc2c1)C(=O)O [Example 101, (R)-3-methoxy-2-((2-oxo-4-(o-tolyl)-2H-chromen-7-yl)oxy)propanoic acid] | 400 nM
Cc1ccccc1-c1cc(=O)oc2cc(OC(CO)C(=O)O)ccc12 (stereo not drawn) [Example 102, 3-hydroxy-2-((2-oxo-4-(o-tolyl)-2H-chromen-7-yl)oxy)propanoic acid] | 1000 nM
Cc1ccccc1-c1cc(=O)oc2cc(O[C@@H](CO)C(=O)O)ccc12 [Example 103, (S)-3-hydroxy-2-((2-oxo-4-(o-tolyl)-2H-chromen-7-yl)oxy)propanoic acid] | 16000 nM
COC[C@H](Oc1ccc2c(-c3ccccc3C)cc(=O)oc2c1)C(=O)O [Example 104, (S)-3-methoxy-2-((2-oxo-4-(o-tolyl)-2H-chromen-7-yl)oxy)propanoic acid] | 2000 nM
COC(=O)C(COC(F)(F)F)Oc1ccc2c(-c3ccccc3C)cc(=O)oc2c1 (stereo not drawn) [Example 105, methyl 2-((2-oxo-4-(o-tolyl)-2H-chromen-7-yl)oxy)-3-(trifluoromethoxy)propanoate] | 40 nM
Cc1ccccc1-c1cc(=O)oc2cc(OC(COC(F)(F)F)C(=O)O)ccc12 (stereo not drawn) [Example 106, 2-((2-oxo-4-(o-tolyl)-2H-chromen-7-yl)oxy)-3-(trifluoromethoxy)propanoic acid] | 30 nM
Cc1cccc(C)c1-c1cc(=O)oc2cc(OCC#N)ccc12 [Example 107, 2-((4-(2,6-dimethylphenyl)-2-oxo-2H-chromen-7-yl)oxy)acetonitrile] | 30 nM
Cc1ccccc1-c1cc(=O)oc2cc(OCC(N)=O)ccc12 [Example 108, 2-((2-oxo-4-(o-tolyl)-2H-chromen-7-yl)oxy)acetamide] | 200 nM
Cc1ccccc1-c1cc(=O)oc2cc(OC(C)C(F)(F)F)ccc12 (stereo not drawn) [Example 109, 4-(o-tolyl)-7-((1,1,1-trifluoropropan-2-yl)oxy)-2H-chromen-2-one] | 300 nM
C[C@@H](Oc1ccc2c(-c3ccc(F)cc3Cl)cc(=O)oc2c1)C(=O)N1CCS(=O)(=O)CC1 [Example 110, (R)-4-(2-chloro-4-fluorophenyl)-7-((1-(1,1-dioxidothiomorpholino)-1-oxopropan-2-yl)oxy)-2H-chromen-2-one] | 500 nM
Cc1ccccc1-c1cc(=O)oc2cc(O[C@H](C)C(=O)N3CCS(=O)(=O)CC3)ccc12 [Example 111, (R)-7-((1-(1,1-dioxidothiomorpholino)-1-oxopropan-2-yl)oxy)-4-(o-tolyl)-2H-chromen-2-one] | 200 nM
Cc1cccc(C)c1-c1cc(=O)oc2cc(O[C@H](C)C(=O)N3CCS(=O)(=O)CC3)ccc12 [Example 112, (R)-4-(2,6-dimethylphenyl)-7-((1-(1,1-dioxidothiomorpholino)-1-oxopropan-2-yl)oxy)-2H-chromen-2-one] | 65000 nM
CCCOc1ccc2c(-c3ccccc3)cc(=O)oc2c1 [Example 113, 4-phenyl-7-propoxy-2H-chromen-2-one] | 4000 nM
